Measured values from patent US20090233913A1, “OPTICAL ISOMERS OF DIHYDRO-2,3-BENZODIAZEPINES AND THEIR STEREOSELECTIVE SYNTHESIS” (priority 2005, published 2009).

Experiments:
[1] = test system: AMPA receptor; test: Spreading depression (SD) test in the chicken retina, in vitro; format: cell-based; conditions: antagonism of SD latency generated by 5 μM S-AMPA, isolated chicken retina, 30-minute incubation, room temperature; average ± deviation of the average
Description: The test was carried out according to method of Sheardown (1993).
Isolated eye-cups of 5-7 days old chickens (Shaver red-brow) were used. The sexes of the chickens were unidentified. Eyes of the animals were enucleated in narcosis caused by etherization, then the back sides of the eyes were cut and put in nutrient solution.
The composition of the medium is 100 mM NaCl, 3 mM KCl, 1 mM MgSO4, 1 mM CaCl2, 30 mM NaHCO3, 1 mM NaH2PO4 10 mM D-glukose, pH=7.3.
The spreading depression (SD) latency generated by 5 μM S-AMPA is determined at room temperature followed by a 90-minute stabilisation period. This value was considered as control value. Then the latency caused by AMPA was measured following a 30-minute incubation period in the presence of the test compound, then followed by further 60 minutes washing the recursion of the latency time to the control value was checked.
The elongation of the control latency with 30 sec corresponds to 100% antagonism. • Literature: Sheardown, M. J.: The triggering of spreading depression in the chicken retina: a pharmacological study. Brain Research 1993, 607: 189-194.

[2] = test system: female Wistar rats; test: Toxicity test in rats: histological atrophy of thymus and bone-marrow after seven-day p.o. treatment; format: in vivo, rat; conditions: for thymus cortex atrophy (scores): female Wistar rats, 30 mg/kg p.o. once daily for seven days, score 0 (no change) to 4 (severe), average ± deviation of the average; for bone-marrow atrophy (scores): female, Wistar, po, 30 mg/kg, 7 days; for bone-marrow atrophy (scores) / effect on the hystological pictures of the thymus and bone-marrow (in words): rat, in vivo
Description: The examination was carried out using female Wistar rats. One day before the treatment the animals were assigned to randomised groups based on their weight (10 animals/group). Each active ingredient was suspended in a solution of 0.4% hydroxypropylmethylcellulose (Methocell F4 M, Dow Chemical Company, USA) and administered once daily for seven days by gastric-canule. The daily doses were 30 mg/kg, the animals of the control group were treated with the solvent. At the end of the experiments the animals were sacrificed by incising of the arteries of thigh in narcosis caused by ether.
After the thymus-ectomy thymi were fixed in a solution of formaline buffered with phosphate, then embedded in paraffin, pigmented with hemalaun-eosin.
Bone-marrow film preparations were made from the femur of the animals and pigmented according to Grimsa method (Sheenan D. C.-Hrapchak B. B.: Theory and practice of histotechnology (2nd ed.) Mosby Company, St. Louis, USA 1980).
The histological athrophy was scored as follows: 0—there is no change, 1—change appears, 2—slight change, 3—middle severe change, marked change, 4—severe, obvious, wide change. The rating was accomplished blind without any information about the treatment.
Groups were compared by KRUSKAL WALLIS ANOVA test (Ranks and Median). In case of significant deviation (p<0.05) WALD-WOLFOWITZ test was used for comparison.

[3] = test system: male Wistar rats; test: Measurement of plasma corticosterone concentration in the rat (radio-immunoassay); format: in vivo; conditions: treatment per os, 15 mg/kg
Description: Examinations were carried out by using male wistar rats weighing 250-300 g. The animals were kept in an air-conditioned room, 12 hours artificial daylight was followed by 12 hours darkness. For four days prior to the experiments the animals got 0.5 ml water daily by a gastric-canule. The weight of the animals was measured at the evening before the experiments, then the animals were placed in separate cages.
Experiments were accomplished in the morning between 9 and 12 hours.
Before the treatment the animals were randomized to groups (7 animals/group)
The tested compounds were administered in a 15 mg/body weight kg dose, in 5 ml/kg solvent volume, using gastric-canule. The control animals were treated with solvent. The solvent composition contained 0.2 ml of 2.5 M HCl and 19.8 ml of distilled water.
After one hour of the treatment the animals were decapitated and about 2 ml of blood were collected in an ice-cold test tube containing 100 μl of 2% (WN) K-EDTA.
For the determination of corticosterone concentration, a corticosterone-3-CMO-BSA anti-body prepared in rabbit was used in a dilution of 1:40000. The antibody cross-reaction with desoxycorticosteron was 1.5%; with progesterone it was 2.3%. […]
The corticosterone concentration was measured from 10 μl plasma without extraction. […] The radioactivity was measured with LKB Clinigamma apparatus. […]

CC(=O)N1N=C(c2ccc(N)c(C)c2)c2cc3c(cc2C[C@H]1C)OCO3 [Example 4, (R)-(−)-7-acetyl-5-(4-amino-3-methylphenyl)-8-methyl-8,9-dihydro-7H-1,3-dioxolo[4,5-h][2,3] benzodiazepine]
EC50 [1]: 1800 ± 100 nM
thymus cortex atrophy (scores) [2]: 0.30 ± 0.21 scores
bone-marrow atrophy (scores) [2]: 0.40 ± 0.27 scores
effect on the hystological pictures of the thymus and bone-marrow (in words) [2]: only in a minimal degree

CC(=O)N1N=C(c2ccc(N)c(C)c2)c2cc3c(cc2C[C@@H]1C)OCO3 [Example 6, (S)-(+)-7-Acetyl-5-(4-amino-3-methylphenyl)-8-methyl-8,9-dihydro-7H-1,3-dioxolo[4,5-h][2,3] benzodiazepine]
thymus cortex atrophy (scores) [2]: 2.9 ± 0.43 scores
bone-marrow atrophy (scores) [2]: 2.1 ± 0.31 scores
effect on the hystological pictures of the thymus and bone-marrow (in words) [2]: caused significant hystological atrophy in the thymus and the bone-marrow

CC(=O)N1N=C(c2ccc(N)c(C)c2)c2cc(Cl)ccc2C[C@H]1C [Example 15, (R)-(−)-3-acetyl-1-(4-amino-3-methylphenyl)-8-chloro-4-methyl-4,5-dihydro-3H-2,3-benzodiazepine]
EC50 [1]: 3900 ± 200 nM
effect on the plasma corticosterone concentration (in words) [3]: did not affect the plasma corticosterone concentration

CC(=O)N1N=C(c2ccc(N)c(C)c2)c2cc(Cl)ccc2C[C@@H]1C [Example 16, (S)-(+)-3-acetyl-1-(4-amino-3-methylphenyl)-8-chloro-4-methyl-4,5-dihydro-3H-2,3-benzodiazepine]
effect on the plasma corticosterone concentration (in words) [3]: elevated the plasma corticosterone concentration
